Read-outs that look alike come from different tables or passages of the source. Blank lines part the entries; values can stand above or below the compound they belong to.
Columns and labels:
[1] = logP determination by HPLC, reversed-phase column (C 18), EEC Directive 79/831 Annex V.A8
Source text: (a) Mobile phases for the determination in the acidic range: 0.1% aqueous phosphoric acid, acetonitrile; linear gradient from 10% acetonitrile to 90% acetonitrile—the corresponding measurement results are labelled in Table 1 with ^a).
(b) Mobile phases for the determination in the neutral range: 0.01 molar aqueous phosphate buffer solution, acetonitrile; linear gradient from 10% acetonitrile to 90% acetonitrile—the corresponding measurement results are labelled in Table 1 with ^b).

weeds [2] = assay: Pre-Emergence Test (Example A), activity against weeds; assay type: in vivo; conditions: soil sprayed about 24 hours after sowing, rated after three weeks
Source text: (§1) Solvent: 5 parts by weight of acetone
(§2) Emulsifier: 1 part by weight of alkylaryl polyglycol ether
(§3) Seeds of the test plants are sown in normal soil.
0%=no effect (like untreated control)

[3] = tested on: crop plants, such as, for example, barley, wheat, rapeseed, soya and sugar beet; assay: Pre-Emergence Test (Example A), tolerance by crop plants; assay type: in vivo
Source text: as §1, §2, §3

weeds [4] = assay: Post-Emergence Test (Example B), activity against weeds; assay type: in vivo; conditions: test plants of a height of 5-15 cm sprayed, rated after three weeks
Source text: as §1, §2
(§4) After three weeks, the degree of damage to the plants is rated in % damage in comparison to the development of the untreated control.

[5] = tested on: crop plants, such as, for example, barley and wheat; assay: Post-Emergence Test (Example B), tolerance by crop plants
Source text: as §1, §2, §4

[6] = a) acidic range: 0.1% aqueous phosphoric acid, acetonitrile gradient, HPLC C 18, 43° C.
[7] = pre-emergence, barley, wheat, rapeseed, soya and sugar beet, rated after three weeks
[8] = post-emergence, barley and wheat, rated after three weeks

melting point: > 250 °C
SMILES: N#Cc1cc(F)c(-n2ncc(=O)[nH]c2=O)cc1F

SMILES: CCS(=O)(=O)N(C(=O)C1CCCCC1)c1cc(-n2ncc(=O)n(C)c2=O)c(F)cc1C#N [Example 16]
logP a) [1, 6]: m.p.: 182 °C logP = 2.46^a)
activity against weeds (degree of damage) (weeds [2]): very strong activity
tolerance by crop plants [3, 7]: essentially being tolerated well
activity against weeds (degree of damage) (weeds [4]): very strong activity
tolerance by crop plants [5, 8]: essentially being tolerated well

SMILES: C/C=C/C(=O)N(c1cc(-n2ncc(=O)n(C)c2=O)c(F)cc1C#N)S(=O)(=O)CC [Example 18]
logP a) [1, 6]: m.p.: 153 °C logP = 2.16^a)
activity against weeds (degree of damage) (weeds [2]): very strong activity
tolerance by crop plants [3, 7]: essentially being tolerated well
activity against weeds (degree of damage) (weeds [4]): very strong activity
tolerance by crop plants [5, 8]: essentially being tolerated well

logP a) [1]: logP = 2.94^a)
SMILES: CCS(=O)(=O)N(C(=O)CC(C)(C)C)c1cc(-n2ncc(=O)n(C)c2=O)c(F)cc1C#N [Example 19]
activity against weeds (degree of damage) (weeds [2]): very strong activity
tolerance by crop plants ([3]; in vivo): essentially being tolerated well
activity against weeds (degree of damage) (weeds [4]): very strong activity
tolerance by crop plants ([5]; in vivo): essentially being tolerated well

logP a) [1]: logP = 2.65^a)
SMILES: CCS(=O)(=O)N(C(=O)CC(C)C)c1cc(-n2ncc(=O)n(C)c2=O)c(F)cc1C#N [Example 20]
activity against weeds (degree of damage) (weeds [2]): very strong activity
tolerance by crop plants ([3]; in vivo): essentially being tolerated well
activity against weeds (degree of damage) (weeds [4]): very strong activity
tolerance by crop plants ([5]; in vivo): essentially being tolerated well

logP a) [1]: logP = 2.65^a)
SMILES: CCS(=O)(=O)N(C(=O)CCCCCl)c1cc(-n2ncc(=O)n(C)c2=O)c(F)cc1C#N [Example 22]
activity against weeds (degree of damage) (weeds [2]): very strong activity
tolerance by crop plants ([3]; in vivo): essentially being tolerated well
activity against weeds (degree of damage) (weeds [4]): very strong activity
tolerance by crop plants ([5]; in vivo): essentially being tolerated well

logP a) [1]: m.p.: 187 °C logP = 2.82^a)
SMILES: CCS(=O)(=O)N(C(=O)c1nn(C)c(OC(F)F)c1C)c1cc(-n2ncc(=O)n(C)c2=O)c(F)cc1C#N [Example 23]
activity against weeds (degree of damage) (weeds [2]): very strong activity
tolerance by crop plants ([3]; in vivo): essentially being tolerated well
activity against weeds (degree of damage) (weeds [4]): very strong activity
tolerance by crop plants ([5]; in vivo): essentially being tolerated well

logP a) [1]: logP = 1.82^a)
SMILES: CCS(=O)(=O)N(C(=O)COC)c1cc(-n2ncc(=O)n(C)c2=O)c(F)cc1C#N [Example 25]
activity against weeds (degree of damage) (weeds [2]): very strong activity
tolerance by crop plants ([3]; in vivo): essentially being tolerated well
activity against weeds (degree of damage) (weeds [4]): very strong activity
tolerance by crop plants ([5]; in vivo): essentially being tolerated well

logP a) [1]: m.p.: 123 °C logP = 2.60^a)
SMILES: CCS(=O)(=O)N(C(=O)c1ccc(F)cc1)c1cc(-n2ncc(=O)n(C)c2=O)c(F)cc1C#N [Example 26]
activity against weeds (degree of damage) (weeds [2]): very strong activity
tolerance by crop plants ([3]; in vivo): essentially being tolerated well
activity against weeds (degree of damage) (weeds [4]): very strong activity
tolerance by crop plants ([5]; in vivo): essentially being tolerated well

logP a) [1]: logP = 2.43^a)
SMILES: CCS(=O)(=O)N(C(=O)CCCCl)c1cc(-n2ncc(=O)n(C)c2=O)c(F)cc1C#N [Example 27]
activity against weeds (degree of damage) (weeds [2]): very strong activity
tolerance by crop plants ([3]; in vivo): essentially being tolerated well
activity against weeds (degree of damage) (weeds [4]): very strong activity
tolerance by crop plants ([5]; in vivo): essentially being tolerated well

logP a) [1]: logP = 1.79^a)
SMILES: CCS(=O)(=O)N(C(C)=O)c1cc(-n2ncc(=O)n(C)c2=O)c(F)cc1C#N [Example 28]
activity against weeds (degree of damage) (weeds [2]): very strong activity
tolerance by crop plants ([3]; in vivo): essentially being tolerated well
activity against weeds (degree of damage) (weeds [4]): very strong activity
tolerance by crop plants ([5]; in vivo): essentially being tolerated well

logP a) [1]: logP = 2.51^a)
SMILES: CCS(=O)(=O)N(C(=O)CCCBr)c1cc(-n2ncc(=O)n(C)c2=O)c(F)cc1C#N [Example 30]
activity against weeds (degree of damage) (weeds [2]): very strong activity
tolerance by crop plants ([3]; in vivo): essentially being tolerated well
activity against weeds (degree of damage) (weeds [4]): very strong activity
tolerance by crop plants ([5]; in vivo): essentially being tolerated well

logP a) [1]: m.p.: 123 °C logP = 3.66^a)
SMILES: CCS(=O)(=O)N(C(=O)CCC1CCCCC1)c1cc(-n2ncc(=O)n(C)c2=O)c(F)cc1C#N [Example 31]
activity against weeds (degree of damage) (weeds [2]): very strong activity
tolerance by crop plants ([3]; in vivo): essentially being tolerated well
activity against weeds (degree of damage) (weeds [4]): very strong activity
tolerance by crop plants ([5]; in vivo): essentially being tolerated well

SMILES: CCS(=O)(=O)N(C(=O)C=C(C)C)c1cc(-n2ncc(=O)n(C)c2=O)c(F)cc1C#N [Example 32]
logP a) [1, 6]: m.p.: 150 °C logP = 2.40^a)
activity against weeds (degree of damage) (weeds [2]): very strong activity
tolerance by crop plants [3, 7]: essentially being tolerated well
activity against weeds (degree of damage) (weeds [4]): very strong activity
tolerance by crop plants [5, 8]: essentially being tolerated well

SMILES: CCS(=O)(=O)N(C(=O)COc1ccccc1Cl)c1cc(-n2ncc(=O)n(C)c2=O)c(F)cc1C#N [Example 35]
logP a) [1]: m.p.: 220 °C logP = 2.89^a)
activity against weeds (degree of damage) (weeds [2]): very strong activity
tolerance by crop plants ([3]; in vivo): essentially being tolerated well
activity against weeds (degree of damage) (weeds [4]): very strong activity
tolerance by crop plants ([5]; in vivo): essentially being tolerated well

logP a) [1]: m.p.: 210 °C logP = 2.73^a)
SMILES: CCS(=O)(=O)N(C(=O)Cc1ccc(F)cc1F)c1cc(-n2ncc(=O)n(C)c2=O)c(F)cc1C#N [Example 36]
activity against weeds (degree of damage) (weeds [2]): very strong activity
tolerance by crop plants ([3]; in vivo): essentially being tolerated well
activity against weeds (degree of damage) (weeds [4]): very strong activity
tolerance by crop plants ([5]; in vivo): essentially being tolerated well

logP a) [1]: m.p.: 222 °C logP = 2.96^a)
SMILES: CCS(=O)(=O)N(C(=O)Cc1ccc(Cl)cc1)c1cc(-n2ncc(=O)n(C)c2=O)c(F)cc1C#N [Example 42]
activity against weeds (degree of damage) (weeds [2]): very strong activity
tolerance by crop plants ([3]; in vivo): essentially being tolerated well
activity against weeds (degree of damage) (weeds [4]): very strong activity
tolerance by crop plants ([5]; in vivo): essentially being tolerated well

logP a) [1]: m.p.: 222 °C logP = 2.96^a)
SMILES: CCS(=O)(=O)N(C(=O)COc1ccccc1)c1cc(-n2ncc(=O)n(C)c2=O)c(F)cc1C#N [Example 43]
activity against weeds (degree of damage) (weeds [2]): very strong activity
tolerance by crop plants ([3]; in vivo): essentially being tolerated well
activity against weeds (degree of damage) (weeds [4]): very strong activity
tolerance by crop plants ([5]; in vivo): essentially being tolerated well

SMILES: CCS(=O)(=O)N(C(=O)CCc1ccc(Cl)c(Cl)c1)c1cc(-n2ncc(=O)n(C)c2=O)c(F)cc1C#N [Example 44]
logP a) [1]: m.p.: 142 °C logP = 2.52^a)
activity against weeds (degree of damage) (weeds [2]): very strong activity
tolerance by crop plants ([3]; in vivo): essentially being tolerated well
activity against weeds (degree of damage) (weeds [4]): very strong activity
tolerance by crop plants ([5]; in vivo): essentially being tolerated well

logP a) [1]: m.p.: 221 °C logP = 2.58^a)
SMILES: CCS(=O)(=O)N(C(=O)Cc1ccc(OC)cc1)c1cc(-n2ncc(=O)n(C)c2=O)c(F)cc1C#N [Example 45]
activity against weeds (degree of damage) (weeds [2]): very strong activity
tolerance by crop plants ([3]; in vivo): essentially being tolerated well
activity against weeds (degree of damage) (weeds [4]): very strong activity
tolerance by crop plants ([5]; in vivo): essentially being tolerated well

SMILES: CCS(=O)(=O)N(C(=O)CCC1CCCC1)c1cc(-n2ncc(=O)n(C)c2=O)c(F)cc1C#N [Example 46]
logP a) [1]: m.p.: 143 °C logP = 3.34^a)
activity against weeds (degree of damage) (weeds [2]): very strong activity
tolerance by crop plants ([3]; in vivo): essentially being tolerated well
activity against weeds (degree of damage) (weeds [4]): very strong activity
tolerance by crop plants ([5]; in vivo): essentially being tolerated well

logP a) [1]: m.p.: 93 °C logP = 2.66^a)
SMILES: CCS(=O)(=O)N(C(=O)C1CCCC1)c1cc(-n2ncc(=O)n(C)c2=O)c(F)cc1C#N [Example 47]
activity against weeds (degree of damage) (weeds [2]): very strong activity
tolerance by crop plants ([3]; in vivo): essentially being tolerated well
activity against weeds (degree of damage) (weeds [4]): very strong activity
tolerance by crop plants ([5]; in vivo): essentially being tolerated well

SMILES: CCS(=O)(=O)N(C(=O)c1ccc(C(C)(C)C)cc1)c1cc(-n2ncc(=O)n(C)c2=O)c(F)cc1C#N [Example 49]
logP a) [1]: m.p.: 119 °C logP = 3.57^a)
activity against weeds (degree of damage) (weeds [2]): very strong activity
tolerance by crop plants ([3]; in vivo): essentially being tolerated well
activity against weeds (degree of damage) (weeds [4]): very strong activity
tolerance by crop plants ([5]; in vivo): essentially being tolerated well

logP a) [1]: m.p.: 74 °C logP = 3.22^a)
SMILES: CCOc1ccc(CCC(=O)N(c2cc(-n3ncc(=O)n(C)c3=O)c(F)cc2C#N)S(=O)(=O)CC)cc1 [Example 51]
activity against weeds (degree of damage) (weeds [2]): very strong activity
tolerance by crop plants ([3]; in vivo): essentially being tolerated well
activity against weeds (degree of damage) (weeds [4]): very strong activity
tolerance by crop plants ([5]; in vivo): essentially being tolerated well

From US6608004B2, “Substituted 2-aryl-1,2,4-triazine-3,5-di(thi)ones” (priority 1999, dated 2003)
